Patent publication US20130197032A1, “[…] COMPOUNDS FOR THE TREATMENT OF NEUROLOGICAL AND […] DISORDERS” (A. CARLSSON RESEARCH AB, priority 2010, published 2013)

Key:
5-HT2B receptors [1] = molecular target: T1, 5-HT2B receptors (Homo sapiens, UniProt P41595); experiment: R-SAT assay 5-HT2B; assay type: cell-based; set-up: expressed in transfected cells; host or cells: NIH/3T3; conditions: Table 3, 5-HT2B; for EC50: negative logarithm of EC50 in molar, read-out: pEC50 (converted); for Eff (%): percent response of reference 5-CT
human 5-HT1F receptor = molecular target: T2, human 5-HT1F receptor (Homo sapiens, UniProt P30939); experiment: R-SAT assay 5-HT1F; assay type: cell-based; conditions: Table 3, 5-HT1F; percent response of reference BRL 54443
T2 construct: expressed in transfected cells; host or cells: NIH/3T3
T2 sequence (P30939 1-366): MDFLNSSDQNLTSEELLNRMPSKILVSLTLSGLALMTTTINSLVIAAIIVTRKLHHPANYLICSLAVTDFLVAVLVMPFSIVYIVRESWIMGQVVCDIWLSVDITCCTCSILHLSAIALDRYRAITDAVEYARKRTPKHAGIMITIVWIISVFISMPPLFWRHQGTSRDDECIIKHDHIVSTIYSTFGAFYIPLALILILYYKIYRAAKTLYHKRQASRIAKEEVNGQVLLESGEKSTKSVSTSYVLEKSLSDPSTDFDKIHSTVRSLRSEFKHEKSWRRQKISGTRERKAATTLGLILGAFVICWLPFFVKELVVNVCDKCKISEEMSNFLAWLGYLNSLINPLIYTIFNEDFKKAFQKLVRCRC

human 5-HT2A receptors = human 5-HT2A receptors (Homo sapiens, UniProt P28223); experiment: BRET2 beta-arrestin-2 recruitment assay at 5-HT2A; assay type: cell-based; set-up: expressed in transfected cells; host or cells: HEK-293T; conditions: mean ± SEM; for EC50: negative logarithm of EC50 in molar (M), HEK 293T cells, read-out: BRET2 pEC50 (converted); for BRET2 Eff %: percent response of reference ligand 5-HT
Experimental: (§1) BRET-2 signals were measured using the multiplate reader Mithras 940LB (Berthold Technologies, Bad Wildbad, Germany) and were calculated as the ratio between the Renilla luciferase emission and the GFP2 emission corrected by the background emissions of non-transfected cells.

human M3 receptor = molecular target: T3, human M3 receptor (Homo sapiens, UniProt P20309); experiment: R-SAT assay M3; assay type: cell-based; conditions: Table 3, M3; percent response of reference Carbachol
T3 construct: expressed in transfected cells; host or cells: NIH/3T3

[2] = system: DOI-induced head twitches in mice; experiment: Antagonism of DOI-induced head twitch response in mice; assay type: in vivo; conditions: DOI 1 mg/kg ip, 75 or 150 μmol/kg ip
Experimental: The animals used in the head twitch experiments were individually placed in Macrolon type II cages and allowed to habituate to these test cages during 30 minutes before the video registration of behavior began. […] The animals were videotaped for 10 minutes; the behavior was scored during the first 5 minutes. The number of head twitches was counted from the videotapes by a person blind to the treatment.
The purpose of the second experiment was to investigate whether the OSU6162 enantiomers would be able to counteract DOI-induced head twitches. […] The mice were habituated to the test cages during 30 minutes before the video registration of behavior began. All compounds were administered 10 min before the registration of behavior started. DOI was given in dose of 1 mg/kg (ip) throughout. […] In b) the interaction between (+)-OSU6162 (75 or 150 μmol/kg ip) and DOI is shown. In c) the interaction between (−)- or (+)-OSU6162 (75 μmol/kg ip) and DOI is shown.

[3] = molecular target: human norepinephrine transporter (NET) (Homo sapiens, UniProt P23975); experiment: Equilibrium radioligand binding to NET; conditions: displacement of 3H-Imipramine
Experimental: Cells were not centrifuged following cell scraping, but were collected directly into the ice-cold nitrogen cavitation chamber.
Membranes were prepared as described above. […] Binding reactions were terminated by filtration through UniFilter-96GF/B filters (from Perkin-Elmer, presoaked with 0.1% polyethylenimine for 1 h) with a Brandel 96-well harvester. Filters were washed with ice-cold wash buffer (50 mM Tris, 120 mM NaCl, pH7.4; 500 ml/plate) and then allowed to air-dry for 30 min. 50 μl MacrosScint-20 scintillation cocktail was added to each well, the plates were sealed, and then counted on a Top-Count (Packard).

D2 receptors = D2 receptors (Homo sapiens, UniProt P14416); experiment: BRET2 beta-arrestin-2 recruitment assay at D2; assay type: cell-based; set-up: expressed in transfected cells; host or cells: HEK-293T; conditions: percent response of reference ligand dopamine; mean ± SEM
Experimental: as §1
Each curve is representative of two to three independent experiments.

human alpha1A receptor = molecular target: T4, human alpha1A receptor (Homo sapiens, UniProt P35348); experiment: R-SAT assay α1A; assay type: cell-based; conditions: Table 3, α1A; percent response of reference Phenylephrine
T4 construct: expressed in transfected cells; host or cells: NIH/3T3 cells, transient transfection, pSI vector
T4 sequence (P35348 1-466): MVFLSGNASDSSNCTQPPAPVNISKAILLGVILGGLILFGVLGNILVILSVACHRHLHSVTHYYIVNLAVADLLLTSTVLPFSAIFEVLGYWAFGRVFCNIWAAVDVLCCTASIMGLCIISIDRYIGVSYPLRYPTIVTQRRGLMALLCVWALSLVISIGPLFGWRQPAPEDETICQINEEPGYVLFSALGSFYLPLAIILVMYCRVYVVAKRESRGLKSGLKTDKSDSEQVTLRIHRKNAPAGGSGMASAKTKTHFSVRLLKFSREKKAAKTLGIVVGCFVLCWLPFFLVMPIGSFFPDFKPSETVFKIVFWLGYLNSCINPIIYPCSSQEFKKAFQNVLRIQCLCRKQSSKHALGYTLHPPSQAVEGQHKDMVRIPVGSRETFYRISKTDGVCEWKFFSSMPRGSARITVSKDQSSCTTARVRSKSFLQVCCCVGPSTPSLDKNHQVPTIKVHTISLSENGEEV

human 5-HT1A receptor = molecular target: T5, human 5-HT1A receptor (Homo sapiens, UniProt P08908); experiment: R-SAT assay 5-HT1A; assay type: cell-based; conditions: Table 3, 5-HT1A; percent response of reference 8-OH-DPAT
T5 construct: expressed in transfected cells; host or cells: NIH/3T3

human M5 receptor = molecular target: T6, human M5 receptor (Homo sapiens, UniProt P08912); experiment: R-SAT assay M5; assay type: cell-based; conditions: Table 3, M5; percent response of reference Carbachol
T6 construct: expressed in transfected cells; host or cells: NIH/3T3 cells, transient transfection, pSI vector

human D5 receptor = molecular target: T7, human D5 receptor (Homo sapiens, UniProt P21918); experiment: R-SAT assay D5; assay type: cell-based; conditions: Table 3, D5; percent response of reference SKF 38393
T7 construct: expressed in transfected cells; host or cells: NIH-3T3 (inferred: R-SAT host; D5 is in neither method list of b200)

human 5-HT6 receptor = human 5-HT6 receptor (Homo sapiens, UniProt P50406); experiment: R-SAT assay 5-HT6; assay type: cell-based; conditions: Table 3, 5-HT6
[4] = clinical observation; cited from earlier work
human D1 receptor = molecular target: T8, human D1 receptor (Homo sapiens, UniProt P21728); experiment: R-SAT assay D1; assay type: cell-based; conditions: Table 3, D1; percent response of reference SKF 38393
T8 construct: expressed in transfected cells; host or cells: NIH-3T3 (inferred: R-SAT host; D1 is in neither method list of b200)

5-HT2B receptors [5] = molecular target: T1, 5-HT2B receptors; experiment: PI hydrolysis assay on 5-HT2B receptors
Experimental: After lysing the cells with 50 μl of 0.1M formic acid, 20 μl each cell lysate was mixed with 80 μl (1 mg) RNA Binding YSi-SPA beads (GE Healthcare, Chalfont St. Giles, UK) on PICO plates (PerkinElmer) and counted on a TopCount (Packard).

T1 sequence (P41595 whole entry): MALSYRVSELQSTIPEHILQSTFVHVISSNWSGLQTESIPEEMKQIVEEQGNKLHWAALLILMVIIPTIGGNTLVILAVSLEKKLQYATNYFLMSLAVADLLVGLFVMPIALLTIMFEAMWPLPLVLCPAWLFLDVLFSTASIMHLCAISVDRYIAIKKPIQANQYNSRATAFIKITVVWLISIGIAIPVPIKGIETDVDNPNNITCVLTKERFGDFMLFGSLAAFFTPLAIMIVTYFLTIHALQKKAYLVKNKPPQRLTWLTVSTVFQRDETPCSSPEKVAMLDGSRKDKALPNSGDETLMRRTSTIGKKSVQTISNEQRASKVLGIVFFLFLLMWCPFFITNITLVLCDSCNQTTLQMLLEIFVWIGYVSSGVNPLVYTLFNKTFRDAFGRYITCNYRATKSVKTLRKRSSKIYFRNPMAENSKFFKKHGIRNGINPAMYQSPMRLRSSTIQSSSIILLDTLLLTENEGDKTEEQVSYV
Sequence of human 5-HT2A receptors (P28223 whole entry): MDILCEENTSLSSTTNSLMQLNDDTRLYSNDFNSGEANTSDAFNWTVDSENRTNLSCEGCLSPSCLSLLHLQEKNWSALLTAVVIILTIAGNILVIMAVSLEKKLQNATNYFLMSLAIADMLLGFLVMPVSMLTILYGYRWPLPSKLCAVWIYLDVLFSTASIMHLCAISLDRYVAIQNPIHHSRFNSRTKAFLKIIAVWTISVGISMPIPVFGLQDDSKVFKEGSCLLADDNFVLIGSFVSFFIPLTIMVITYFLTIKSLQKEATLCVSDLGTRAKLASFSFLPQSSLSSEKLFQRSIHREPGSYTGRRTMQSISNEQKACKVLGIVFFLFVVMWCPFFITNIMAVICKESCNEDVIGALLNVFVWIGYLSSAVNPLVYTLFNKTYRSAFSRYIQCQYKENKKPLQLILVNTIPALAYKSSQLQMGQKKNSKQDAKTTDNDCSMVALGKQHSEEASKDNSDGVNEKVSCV
Sequence of human norepinephrine transporter (NET) (P23975 whole entry): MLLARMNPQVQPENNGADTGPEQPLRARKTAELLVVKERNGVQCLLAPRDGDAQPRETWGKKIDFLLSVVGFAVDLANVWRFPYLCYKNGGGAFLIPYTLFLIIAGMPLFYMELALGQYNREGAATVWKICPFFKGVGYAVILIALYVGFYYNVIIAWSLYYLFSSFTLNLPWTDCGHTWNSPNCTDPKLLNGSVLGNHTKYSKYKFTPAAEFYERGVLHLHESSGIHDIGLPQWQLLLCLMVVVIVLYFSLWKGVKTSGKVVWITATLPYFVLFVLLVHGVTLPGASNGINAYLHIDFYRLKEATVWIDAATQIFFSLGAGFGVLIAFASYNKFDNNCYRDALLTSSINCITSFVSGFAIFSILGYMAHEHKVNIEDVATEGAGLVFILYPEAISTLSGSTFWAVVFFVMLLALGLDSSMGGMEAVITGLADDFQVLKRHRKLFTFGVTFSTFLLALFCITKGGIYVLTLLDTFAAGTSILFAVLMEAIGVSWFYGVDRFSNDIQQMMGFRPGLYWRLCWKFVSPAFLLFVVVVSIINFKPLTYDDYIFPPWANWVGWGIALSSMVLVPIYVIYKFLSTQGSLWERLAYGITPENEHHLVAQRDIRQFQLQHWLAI
T5 sequence (P08908 whole entry): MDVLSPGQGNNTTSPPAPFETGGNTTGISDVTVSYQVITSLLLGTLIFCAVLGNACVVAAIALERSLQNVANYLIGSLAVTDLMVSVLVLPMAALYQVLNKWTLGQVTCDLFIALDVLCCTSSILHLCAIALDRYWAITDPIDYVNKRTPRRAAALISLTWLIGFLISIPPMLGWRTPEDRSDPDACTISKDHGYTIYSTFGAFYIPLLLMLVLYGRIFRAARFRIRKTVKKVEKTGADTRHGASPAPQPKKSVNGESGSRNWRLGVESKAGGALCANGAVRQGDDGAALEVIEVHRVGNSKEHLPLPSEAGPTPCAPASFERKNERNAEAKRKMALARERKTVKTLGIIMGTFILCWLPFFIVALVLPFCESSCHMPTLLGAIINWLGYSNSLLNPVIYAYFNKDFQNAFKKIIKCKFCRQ
Sequence of D2 receptors (P14416 1-414 isoform P14416-2): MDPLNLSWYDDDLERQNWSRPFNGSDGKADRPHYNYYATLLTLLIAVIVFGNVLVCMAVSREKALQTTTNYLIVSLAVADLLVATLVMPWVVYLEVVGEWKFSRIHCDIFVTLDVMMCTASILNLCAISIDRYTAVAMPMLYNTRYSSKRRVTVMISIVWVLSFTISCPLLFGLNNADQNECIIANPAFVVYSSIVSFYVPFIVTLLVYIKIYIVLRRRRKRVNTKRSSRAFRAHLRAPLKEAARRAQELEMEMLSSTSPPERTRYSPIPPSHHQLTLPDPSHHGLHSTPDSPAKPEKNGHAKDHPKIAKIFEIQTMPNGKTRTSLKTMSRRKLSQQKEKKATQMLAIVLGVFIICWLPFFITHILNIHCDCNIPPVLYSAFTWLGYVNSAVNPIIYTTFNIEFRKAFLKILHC
Sequence of human 5-HT6 receptor (P50406 whole entry): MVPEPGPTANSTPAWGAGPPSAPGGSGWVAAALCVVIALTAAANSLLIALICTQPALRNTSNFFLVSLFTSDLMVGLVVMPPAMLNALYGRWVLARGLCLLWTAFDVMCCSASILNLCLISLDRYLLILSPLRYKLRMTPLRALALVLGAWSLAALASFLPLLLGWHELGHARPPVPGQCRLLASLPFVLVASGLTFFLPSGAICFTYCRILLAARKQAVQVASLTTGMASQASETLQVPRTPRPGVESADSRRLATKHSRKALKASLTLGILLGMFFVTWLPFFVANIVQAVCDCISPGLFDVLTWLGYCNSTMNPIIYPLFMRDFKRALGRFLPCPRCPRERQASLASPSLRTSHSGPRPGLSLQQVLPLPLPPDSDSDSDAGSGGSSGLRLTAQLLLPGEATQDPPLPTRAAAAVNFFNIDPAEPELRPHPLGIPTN
T3 sequence (P20309 whole entry): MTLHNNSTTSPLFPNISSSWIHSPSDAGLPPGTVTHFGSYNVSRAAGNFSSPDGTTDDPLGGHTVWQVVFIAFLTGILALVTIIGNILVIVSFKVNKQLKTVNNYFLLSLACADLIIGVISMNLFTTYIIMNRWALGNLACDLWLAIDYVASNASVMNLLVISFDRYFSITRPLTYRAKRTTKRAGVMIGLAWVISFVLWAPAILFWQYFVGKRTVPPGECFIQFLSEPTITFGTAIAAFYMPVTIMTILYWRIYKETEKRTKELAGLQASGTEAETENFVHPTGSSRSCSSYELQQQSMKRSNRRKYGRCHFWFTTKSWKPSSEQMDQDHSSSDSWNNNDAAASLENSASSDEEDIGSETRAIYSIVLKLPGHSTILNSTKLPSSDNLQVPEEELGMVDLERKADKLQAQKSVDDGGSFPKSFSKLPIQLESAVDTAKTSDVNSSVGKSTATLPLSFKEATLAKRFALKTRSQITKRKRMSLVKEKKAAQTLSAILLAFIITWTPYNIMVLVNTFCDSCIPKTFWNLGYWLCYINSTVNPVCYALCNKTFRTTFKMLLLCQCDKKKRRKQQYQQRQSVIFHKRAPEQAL
T8 sequence (P21728 whole entry): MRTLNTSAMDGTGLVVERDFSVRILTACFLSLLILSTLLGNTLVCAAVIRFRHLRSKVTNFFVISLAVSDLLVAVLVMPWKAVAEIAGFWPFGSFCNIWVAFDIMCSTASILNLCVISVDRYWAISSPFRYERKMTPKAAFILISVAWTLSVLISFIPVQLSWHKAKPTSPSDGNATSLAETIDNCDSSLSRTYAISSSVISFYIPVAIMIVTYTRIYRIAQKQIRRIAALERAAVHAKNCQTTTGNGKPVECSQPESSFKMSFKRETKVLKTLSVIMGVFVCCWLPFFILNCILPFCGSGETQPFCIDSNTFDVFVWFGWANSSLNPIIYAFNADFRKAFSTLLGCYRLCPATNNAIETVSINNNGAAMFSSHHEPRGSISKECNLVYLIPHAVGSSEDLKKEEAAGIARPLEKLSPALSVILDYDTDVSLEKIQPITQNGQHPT
T7 sequence (P21918 whole entry): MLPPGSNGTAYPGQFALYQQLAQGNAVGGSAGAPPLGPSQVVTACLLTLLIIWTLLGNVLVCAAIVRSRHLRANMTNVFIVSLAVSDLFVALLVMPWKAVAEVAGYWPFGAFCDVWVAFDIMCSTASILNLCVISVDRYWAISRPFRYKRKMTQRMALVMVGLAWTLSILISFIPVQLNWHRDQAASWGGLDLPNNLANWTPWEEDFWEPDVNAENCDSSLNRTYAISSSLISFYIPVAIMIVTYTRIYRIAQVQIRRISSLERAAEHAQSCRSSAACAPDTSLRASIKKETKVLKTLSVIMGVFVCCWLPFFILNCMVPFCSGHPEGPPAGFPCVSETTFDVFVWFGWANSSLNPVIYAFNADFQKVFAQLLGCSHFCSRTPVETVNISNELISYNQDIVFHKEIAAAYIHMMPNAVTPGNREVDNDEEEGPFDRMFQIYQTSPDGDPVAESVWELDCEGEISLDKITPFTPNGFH
T6 sequence (P08912 whole entry): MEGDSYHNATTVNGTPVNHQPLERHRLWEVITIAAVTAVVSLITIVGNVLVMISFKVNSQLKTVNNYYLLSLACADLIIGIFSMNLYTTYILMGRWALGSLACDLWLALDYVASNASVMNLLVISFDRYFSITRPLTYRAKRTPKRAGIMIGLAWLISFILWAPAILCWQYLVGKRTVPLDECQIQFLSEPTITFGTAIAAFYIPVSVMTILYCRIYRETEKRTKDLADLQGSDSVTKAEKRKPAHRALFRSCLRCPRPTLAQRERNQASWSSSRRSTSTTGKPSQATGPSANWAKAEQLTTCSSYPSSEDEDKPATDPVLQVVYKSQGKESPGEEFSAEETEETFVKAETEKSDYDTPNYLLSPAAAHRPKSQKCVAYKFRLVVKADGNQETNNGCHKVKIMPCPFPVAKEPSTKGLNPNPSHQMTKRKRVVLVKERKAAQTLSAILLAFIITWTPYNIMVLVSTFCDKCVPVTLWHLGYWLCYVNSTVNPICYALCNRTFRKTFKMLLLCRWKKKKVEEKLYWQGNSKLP

SMILES	EC50 (5-HT2B receptors [1]) [µM]	Eff (%) (5-HT2B receptors [1])	Eff (%) (human 5-HT1F receptor)	EC50 (human 5-HT2A receptors) [M]	Eff (%) (human M3 receptor)	antagonism of DOI-induced head twitches [2]	Inh % [3] [%]	BRET2 Eff % (D2 receptors) [%]	Eff (%) (human alpha1A receptor)	Eff (%) (human 5-HT1A receptor)	further results
CCCN1CCC[C@H](c2cccc(S(C)(=O)=O)c2)C1 [(+)-OSU6162, (3R)-3-[3-(methylsulfonyl)phenyl]-1-propylpiperidine]	5.01	111	22	1.58e-05	6	neither 75 nor 150 μmol/kg of (+)-OSU6162 significantly antagonized DOI-induced head twitches	14	0 ± 0	22	24	BRET2 Eff % (human 5-HT2A receptors; listed as (+) OSU-6162): ~80%; BRET2 Eff % (human 5-HT2A receptors; listed as (+)-OSU-6162): 84 ± 2%
CCCN1CCC[C@@H](c2cccc(S(C)(=O)=O)c2)C1 [(−)-OSU6162, (3S)-3-[3-(methylsulfonyl)phenyl]-1-propylpiperidine]	0.631	75	30	1e-05	0	significantly antagonized DOI-induced head twitches	11	0 ± 0	15	14	Eff (%) (human M5 receptor): −5%; Eff (%) (human D5 receptor): 10%; BRET2 Eff % (human 5-HT2A receptors; listed as (−) OSU-6162): approximately 60%; BRET2 Eff % (human 5-HT2A receptors; listed as (−)-OSU-6162): 63 ± 2%; EC50 (human 5-HT6 receptor; negative logarithm of EC50 in molar, read-out: pEC50 (converted)): > 10 µM; Eff (%) (human 5-HT6 receptor; percent response of reference 5-CT): 52%; hallucinogenic activity [4]: no hallucinogenic activity; Eff (%) (human D1 receptor): 11%; EC50 (5-HT2B receptors [5]): 0.631 µM; efficacy in PI hydrolysis assays on 5-HT2B receptors (5-HT2B receptors [5]; data not shown): 24%
